Test: The drug is tested on Bifidobacterium breve strain: DSM20213 for biotransformation. The drug concentrations were measured before and after a 12-h incubation by liquid-chromatography-coupled mass spectrometry (LC–MS)
Conditions: 2 µM

Row | SMILES | Bacterial Biotransformation
1 | CC(C)NCC(O)c1ccc(NS(C)(=O)=O)cc1 (configuration not stated) [SOTALOL] | Compound NOT metabolized
2 | COc1cc2nc(N3CCN(C(=O)c4ccco4)CC3)nc(N)c2cc1OC [PRAZOSIN] | Compound NOT metabolized
3 | CC(N)C12CC3CC(CC(C3)C1)C2 (configuration not stated) [RIMANTADINE] | Compound NOT metabolized
4 | CCOc1ccc(NC(C)=O)cc1 [PHENACETIN] | Compound NOT metabolized

Test: The drug is tested on Bacteroides caccae strain: ATCC43185 for biotransformation. The drug concentrations were measured before and after a 12-h incubation by liquid-chromatography-coupled mass spectrometry (LC–MS)
Conditions: 2 µM

Row | SMILES | Bacterial Biotransformation
5 | CC(C)NCC(O)c1ccc(NS(C)(=O)=O)cc1 (configuration not stated) [SOTALOL] | Compound NOT metabolized
6 | COc1cc2nc(N3CCN(C(=O)c4ccco4)CC3)nc(N)c2cc1OC [PRAZOSIN] | Compound NOT metabolized
7 | CC(N)C12CC3CC(CC(C3)C1)C2 (configuration not stated) [RIMANTADINE] | Compound NOT metabolized
8 | CCOc1ccc(NC(C)=O)cc1 [PHENACETIN] | Compound NOT metabolized

Test: The drug is tested on Bacteroides cellulosilyticus strain: DSM14838 for biotransformation. The drug concentrations were measured before and after a 12-h incubation by liquid-chromatography-coupled mass spectrometry (LC–MS)
Conditions: 2 µM

Row | SMILES | Bacterial Biotransformation
9 | CC(C)NCC(O)c1ccc(NS(C)(=O)=O)cc1 (configuration not stated) [SOTALOL] | Compound NOT metabolized
10 | COc1cc2nc(N3CCN(C(=O)c4ccco4)CC3)nc(N)c2cc1OC [PRAZOSIN] | Compound NOT metabolized
11 | CC(N)C12CC3CC(CC(C3)C1)C2 (configuration not stated) [RIMANTADINE] | Compound NOT metabolized
12 | CCOc1ccc(NC(C)=O)cc1 [PHENACETIN] | Compound NOT metabolized

Test: The drug is tested on Bacteroides finegoldii strain: DSM17565 for biotransformation. The drug concentrations were measured before and after a 12-h incubation by liquid-chromatography-coupled mass spectrometry (LC–MS)
Conditions: 2 µM

Row | SMILES | Bacterial Biotransformation
13 | CC(C)NCC(O)c1ccc(NS(C)(=O)=O)cc1 (configuration not stated) [SOTALOL] | Compound NOT metabolized
14 | COc1cc2nc(N3CCN(C(=O)c4ccco4)CC3)nc(N)c2cc1OC [PRAZOSIN] | Compound NOT metabolized
15 | CC(N)C12CC3CC(CC(C3)C1)C2 (configuration not stated) [RIMANTADINE] | Compound NOT metabolized
16 | CCOc1ccc(NC(C)=O)cc1 [PHENACETIN] | Compound NOT metabolized

Test: The drug is tested on Bacteroides fragilis strain: ATCC43859 for biotransformation. The drug concentrations were measured before and after a 12-h incubation by liquid-chromatography-coupled mass spectrometry (LC–MS)
Conditions: 2 µM

Row | SMILES | Bacterial Biotransformation
17 | CC(C)NCC(O)c1ccc(NS(C)(=O)=O)cc1 (configuration not stated) [SOTALOL] | Compound metabolized
18 | COc1cc2nc(N3CCN(C(=O)c4ccco4)CC3)nc(N)c2cc1OC [PRAZOSIN] | Compound NOT metabolized
19 | CC(N)C12CC3CC(CC(C3)C1)C2 (configuration not stated) [RIMANTADINE] | Compound NOT metabolized
20 | CCOc1ccc(NC(C)=O)cc1 [PHENACETIN] | Compound NOT metabolized

Test: The drug is tested on Bacteroides ovatus strain: ATCC8483 for biotransformation. The drug concentrations were measured before and after a 12-h incubation by liquid-chromatography-coupled mass spectrometry (LC–MS)
Conditions: 2 µM

Row | SMILES | Bacterial Biotransformation
21 | CC(C)NCC(O)c1ccc(NS(C)(=O)=O)cc1 (configuration not stated) [SOTALOL] | Compound metabolized
22 | COc1cc2nc(N3CCN(C(=O)c4ccco4)CC3)nc(N)c2cc1OC [PRAZOSIN] | Compound NOT metabolized
23 | CC(N)C12CC3CC(CC(C3)C1)C2 (configuration not stated) [RIMANTADINE] | Compound NOT metabolized
24 | CCOc1ccc(NC(C)=O)cc1 [PHENACETIN] | Compound NOT metabolized

Test: The drug is tested on Blautia luti strain: DSM14534 for biotransformation. The drug concentrations were measured before and after a 12-h incubation by liquid-chromatography-coupled mass spectrometry (LC–MS)
Assay type: ADME
Parameters: dose 2 uM, timepoint 0 vs 12 hours
Conditions: 2 µM

Row | SMILES | Bacterial Biotransformation
25 | CC(C)NCC(O)c1ccc(NS(C)(=O)=O)cc1 (configuration not stated) [SOTALOL] | Compound NOT metabolized
26 | COc1cc2nc(N3CCN(C(=O)c4ccco4)CC3)nc(N)c2cc1OC [PRAZOSIN] | Compound NOT metabolized
27 | CC(N)C12CC3CC(CC(C3)C1)C2 (configuration not stated) [RIMANTADINE] | Compound NOT metabolized
28 | CCOc1ccc(NC(C)=O)cc1 [PHENACETIN] | Compound NOT metabolized

Test: The drug is tested on Clostridium sp. strain: fecal isolate for biotransformation. The drug concentrations were measured before and after a 12-h incubation by liquid-chromatography-coupled mass spectrometry (LC–MS)
Conditions: 2 µM

Row | SMILES | Bacterial Biotransformation
29 | CC(N)C12CC3CC(CC(C3)C1)C2 (configuration not stated) [RIMANTADINE] | Compound NOT metabolized
30 | CCOc1ccc(NC(C)=O)cc1 [PHENACETIN] | Compound NOT metabolized

Test: The drug is tested on Clostridium scindens strain: ATCC35704 for biotransformation. The drug concentrations were measured before and after a 12-h incubation by liquid-chromatography-coupled mass spectrometry (LC–MS)
Conditions: 2 µM

Row | SMILES | Bacterial Biotransformation
31 | CC(C)NCC(O)c1ccc(NS(C)(=O)=O)cc1 (configuration not stated) [SOTALOL] | Compound NOT metabolized
32 | CC(N)C12CC3CC(CC(C3)C1)C2 (configuration not stated) [RIMANTADINE] | Compound NOT metabolized
33 | CCOc1ccc(NC(C)=O)cc1 [PHENACETIN] | Compound NOT metabolized

Test: The drug is tested on Clostridium symbiosum strain: ATCC14940 for biotransformation. The drug concentrations were measured before and after a 12-h incubation by liquid-chromatography-coupled mass spectrometry (LC–MS)
Conditions: 2 µM

Row | SMILES | Bacterial Biotransformation
34 | CC(C)NCC(O)c1ccc(NS(C)(=O)=O)cc1 (configuration not stated) [SOTALOL] | Compound NOT metabolized
35 | CC(N)C12CC3CC(CC(C3)C1)C2 (configuration not stated) [RIMANTADINE] | Compound NOT metabolized
36 | CCOc1ccc(NC(C)=O)cc1 [PHENACETIN] | Compound NOT metabolized

Test: The drug is tested on Eubacterium hallii strain: DSM3353 for biotransformation. The drug concentrations were measured before and after a 12-h incubation by liquid-chromatography-coupled mass spectrometry (LC–MS)
Conditions: anaerobutyricum hallii, 2 µM

Row | SMILES | Bacterial Biotransformation
37 | CC(C)NCC(O)c1ccc(NS(C)(=O)=O)cc1 (configuration not stated) [SOTALOL] | Compound NOT metabolized
38 | COc1cc2nc(N3CCN(C(=O)c4ccco4)CC3)nc(N)c2cc1OC [PRAZOSIN] | Compound NOT metabolized
39 | CC(N)C12CC3CC(CC(C3)C1)C2 (configuration not stated) [RIMANTADINE] | Compound NOT metabolized
40 | CCOc1ccc(NC(C)=O)cc1 [PHENACETIN] | Compound NOT metabolized

Test: The drug is tested on Eubacterium rectale strain: ATCC33656 for biotransformation. The drug concentrations were measured before and after a 12-h incubation by liquid-chromatography-coupled mass spectrometry (LC–MS)
Conditions: agathobacter rectalis, 2 µM

Row | SMILES | Bacterial Biotransformation
41 | COc1cc2nc(N3CCN(C(=O)c4ccco4)CC3)nc(N)c2cc1OC [PRAZOSIN] | Compound NOT metabolized
42 | CC(N)C12CC3CC(CC(C3)C1)C2 (configuration not stated) [RIMANTADINE] | Compound NOT metabolized
43 | CCOc1ccc(NC(C)=O)cc1 [PHENACETIN] | Compound NOT metabolized

Test: The drug is tested on Enterobacter cancerogenus strain: ATCC35316 for biotransformation. The drug concentrations were measured before and after a 12-h incubation by liquid-chromatography-coupled mass spectrometry (LC–MS)
Conditions: 2 µM

Row | SMILES | Bacterial Biotransformation
44 | CC(C)NCC(O)c1ccc(NS(C)(=O)=O)cc1 (configuration not stated) [SOTALOL] | Compound NOT metabolized
45 | COc1cc2nc(N3CCN(C(=O)c4ccco4)CC3)nc(N)c2cc1OC [PRAZOSIN] | Compound NOT metabolized
46 | CC(N)C12CC3CC(CC(C3)C1)C2 (configuration not stated) [RIMANTADINE] | Compound NOT metabolized

Test: The drug is tested on Escherichia coli strain: BW25113 for biotransformation. The drug concentrations were measured before and after a 12-h incubation by liquid-chromatography-coupled mass spectrometry (LC–MS)
Conditions: 2 µM

Row | SMILES | Bacterial Biotransformation
47 | CC(C)NCC(O)c1ccc(NS(C)(=O)=O)cc1 (configuration not stated) [SOTALOL] | Compound NOT metabolized
48 | CCOc1ccc(NC(C)=O)cc1 [PHENACETIN] | Compound NOT metabolized

Conditions: bacteroides fragilis, 12 h, 2 µM
Description: The drug is tested on Bacteroides fragilis strain: NCTC 9343 for biotransformation. The drug concentrations were measured before and after a 12-h incubation by liquid-chromatography-coupled mass spectrometry (LC–MS)

Row | SMILES | Bacterial Biotransformation
49 | CC(C)NCC(O)c1ccc(NS(C)(=O)=O)cc1 (configuration not stated) [SOTALOL] | Compound NOT metabolized
50 | CC(N)C12CC3CC(CC(C3)C1)C2 (configuration not stated) [RIMANTADINE] | Compound NOT metabolized
51 | CCOc1ccc(NC(C)=O)cc1 [PHENACETIN] | Compound NOT metabolized

Conditions: bacteroides fragilis, 12 h, 2 µM
Remark: another data set of the same source
Description: The drug is tested on Bacteroides fragilis strain: DS-208 for biotransformation. The drug concentrations were measured before and after a 12-h incubation by liquid-chromatography-coupled mass spectrometry (LC–MS)

Row | SMILES | Bacterial Biotransformation
52 | CC(C)NCC(O)c1ccc(NS(C)(=O)=O)cc1 (configuration not stated) [SOTALOL] | Compound metabolized
53 | COc1cc2nc(N3CCN(C(=O)c4ccco4)CC3)nc(N)c2cc1OC [PRAZOSIN] | Compound NOT metabolized
54 | CC(N)C12CC3CC(CC(C3)C1)C2 (configuration not stated) [RIMANTADINE] | Compound NOT metabolized
55 | CCOc1ccc(NC(C)=O)cc1 [PHENACETIN] | Compound NOT metabolized

Conditions: bacteroides thetaiotaomicron, 12 h, 2 µM
Description: The drug is tested on Bacteroides thetaiotaomicron strain: VPI-5482 for biotransformation. The drug concentrations were measured before and after a 12-h incubation by liquid-chromatography-coupled mass spectrometry (LC–MS)

Row | SMILES | Bacterial Biotransformation
56 | CC(C)NCC(O)c1ccc(NS(C)(=O)=O)cc1 (configuration not stated) [SOTALOL] | Compound metabolized
57 | COc1cc2nc(N3CCN(C(=O)c4ccco4)CC3)nc(N)c2cc1OC [PRAZOSIN] | Compound NOT metabolized
58 | CC(N)C12CC3CC(CC(C3)C1)C2 (configuration not stated) [RIMANTADINE] | Compound NOT metabolized
59 | CCOc1ccc(NC(C)=O)cc1 [PHENACETIN] | Compound NOT metabolized

Conditions: bacteroides thetaiotaomicron, 12 h, 2 µM
Remark: another data set of the same source
Description: The drug is tested on Bacteroides thetaiotaomicron strain: 3731 for biotransformation. The drug concentrations were measured before and after a 12-h incubation by liquid-chromatography-coupled mass spectrometry (LC–MS)

Row | SMILES | Bacterial Biotransformation
60 | CC(C)NCC(O)c1ccc(NS(C)(=O)=O)cc1 (configuration not stated) [SOTALOL] | Compound NOT metabolized
61 | COc1cc2nc(N3CCN(C(=O)c4ccco4)CC3)nc(N)c2cc1OC [PRAZOSIN] | Compound NOT metabolized
62 | CC(N)C12CC3CC(CC(C3)C1)C2 (configuration not stated) [RIMANTADINE] | Compound NOT metabolized
63 | CCOc1ccc(NC(C)=O)cc1 [PHENACETIN] | Compound NOT metabolized

Conditions: parabacteroides distasonis, 12 h, 2 µM
Description: The drug is tested on Parabacteroides distasonis strain: ATCC8503 for biotransformation. The drug concentrations were measured before and after a 12-h incubation by liquid-chromatography-coupled mass spectrometry (LC–MS)

Row | SMILES | Bacterial Biotransformation
64 | CC(C)NCC(O)c1ccc(NS(C)(=O)=O)cc1 (configuration not stated) [SOTALOL] | Compound NOT metabolized
65 | COc1cc2nc(N3CCN(C(=O)c4ccco4)CC3)nc(N)c2cc1OC [PRAZOSIN] | Compound NOT metabolized
66 | CC(N)C12CC3CC(CC(C3)C1)C2 (configuration not stated) [RIMANTADINE] | Compound NOT metabolized
67 | CCOc1ccc(NC(C)=O)cc1 [PHENACETIN] | Compound NOT metabolized

Source: ChEMBL document CHEMBL5303573, “Mapping human microbiome drug metabolism by gut bacteria and their genes” (Nature, 2019)
